Among the data in the supplement of paper PMC6045584 are surviving fraction values, retold here.

± gives the standard deviation of the averaged measurements.

Compound in assay [1]: Cc1ccc(-c2cc(C(F)(F)F)nn2-c2ccc(S(N)(=O)=O)cc2)cc1 [CELECOXIB]
Kind of assay: surviving fraction relative to DMSO-only wells; higher = less growth inhibition. Particulars: exposure time: 5 days. The method, boiled down: (§1)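 Five days of continuous inhibitor exposure, at 0.5, 1, 5, 10, 50, 100, 500 and 1000 nM, followed a 24-hour period after log-phase tumour cell lines were seeded at 250–500 cells per well in 384-well plates. Surviving fraction was derived from CellTiter-Glo luminescence relative to the median of DMSO-only wells. Plates were read after 10 minutes at room temperature, and lines screened three times were kept only if replicate Pearson r >0.7 and median Z' >0.3.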

Compound in assay [2]: CC(=O)O[C@H]1C(=O)[C@@]2(C)[C@H]([C@H](OC(=O)c3ccccc3)[C@]3(O)C[C@H](OC(=O)[C@H](O)[C@@H](NC(=O)c4ccccc4)c4ccccc4)C(C)=C1C3(C)C)[C@]1(OC(C)=O)CO[C@@H]1C[C@@H]2O [PACLITAXEL]
Described as above. Particulars: exposure time: 5 days. The method in brief: as §1

As to HCC1806 BREAST, the surviving fraction in assay [1] (0.5 nM) was 1.08 ± 0.049; in assay [1] (1 nM), 1.01 ± 0.16; in assay [1] (5 nM), 1.11 ± 0.084; in assay [1] (10 nM) it was 1.1 ± 0.18; in assay [1] (50 nM), 1.11 ± 0.039; in assay [1] (100 nM) it was 1.25 ± 0.09. Moreover, the surviving fraction stood at 1.09 ± 0.059 in assay [1] (500 nM); 1.08 ± 0.077 in assay [1] (1000 nM); 0.89 ± 0.17 in assay [2] (0.5 nM); 0.1833 ± 0.0015 in assay [2] (1 nM); 0.0437 ± 0.0038 in assay [2] (5 nM); 0.0357 ± 0.0032 in assay [2] (10 nM). In addition, the surviving fraction came out at 0.0307 ± 0.0057 in assay [2] (50 nM), 0.0207 ± 0.0029 in assay [2] (100 nM), 0.0253 ± 0.0031 in assay [2] (500 nM) and 0.021 ± 0.0017 in assay [2] (1000 nM).

With NOS1 BONE, the surviving fraction stood at 1.18 ± 0.12 in assay [1] (0.5 nM); 1.15 ± 0.34 in assay [1] (1 nM); 1.16 ± 0.071 in assay [1] (5 nM); 1.25 ± 0.051 in assay [1] (10 nM); 1.18 ± 0.019 in assay [1] (50 nM); 1.21 ± 0.054 in assay [1] (100 nM). Also, the surviving fraction amounted to 1.12 ± 0.11 in assay [1] (500 nM); 1.16 ± 0.075 in assay [1] (1000 nM); 1.08 ± 0.072 in assay [2] (0.5 nM); 0.6 ± 0.053 in assay [2] (1 nM); 0.396 ± 0.026 in assay [2] (5 nM); 0.304 ± 0.0081 in assay [2] (10 nM). The surviving fraction is 0.287 ± 0.024 in assay [2] (50 nM), 0.252 ± 0.013 in assay [2] (100 nM), 0.214 ± 0.039 in assay [2] (500 nM) and 0.21 ± 0.024 in assay [2] (1000 nM).

Regarding SCC36 HEADNECK, the surviving fraction amounted to 1.05 ± 0.029 in assay [1] (0.5 nM); 0.924 ± 0.11 in assay [1] (1 nM); 1.13 ± 0.057 in assay [1] (5 nM); 1.09 ± 0.025 in assay [1] (10 nM); 1.16 ± 0.12 in assay [1] (50 nM); 1.08 ± 0.044 in assay [1] (100 nM). Further, the surviving fraction was determined as 1.13 ± 0.079 in assay [1] (500 nM); 1.04 ± 0.14 in assay [1] (1000 nM); 0.966 ± 0.035 in assay [2] (0.5 nM); 0.8 ± 0.0036 in assay [2] (1 nM); 0.246 ± 0.041 in assay [2] (5 nM); 0.154 ± 0.042 in assay [2] (10 nM). In addition, the surviving fraction in assay [2] (50 nM) turned out to be 0.103 ± 0.007; in assay [2] (100 nM), 0.109 ± 0.026; in assay [2] (500 nM), 0.108 ± 0.006; in assay [2] (1000 nM), 0.114 ± 0.017.

SUM44 BREAST: the surviving fraction in assay [1] (0.5 nM) was found to be 1.28 ± 0.4; in assay [1] (1 nM), 1.25 ± 0.47; in assay [1] (5 nM), 1.35 ± 0.54; in assay [1] (10 nM) it was 1.26 ± 0.34; in assay [1] (50 nM), 1.36 ± 0.47; in assay [1] (100 nM), 1.46 ± 0.53. Moreover, the surviving fraction amounted to 1.35 ± 0.5 in assay [1] (500 nM); 1.37 ± 0.42 in assay [1] (1000 nM); 0.927 ± 0.021 in assay [2] (0.5 nM); 0.515 ± 0.041 in assay [2] (1 nM); 0.403 ± 0.0066 in assay [2] (5 nM); 0.278 ± 0.0095 in assay [2] (10 nM). In addition, the surviving fraction in assay [2] (50 nM) turned out to be 0.241 ± 0.019; in assay [2] (100 nM), 0.213 ± 0.0074; in assay [2] (500 nM) it was 0.218 ± 0.0062; in assay [2] (1000 nM), 0.202 ± 0.011.

As to OSHN BONE, the surviving fraction was determined as 1.099 ± 0.0076 in assay [1] (0.5 nM); 1.091 ± 0.0078 in assay [1] (1 nM); 1.13 ± 0.018 in assay [1] (5 nM); 1.1 ± 0.019 in assay [1] (10 nM); 1.132 ± 0.0091 in assay [1] (50 nM); 1.15 ± 0.029 in assay [1] (100 nM). For the same test system, the surviving fraction in assay [1] (500 nM) worked out at 1.15 ± 0.023; in assay [1] (1000 nM), 1.11 ± 0.015; in assay [2] (0.5 nM), 1.03 ± 0.025; in assay [2] (1 nM), 1.05 ± 0.012; in assay [2] (5 nM), 0.0353 ± 0.0015; in assay [2] (10 nM), 0.0313 ± 0.0011. Besides, the surviving fraction came out at 0.0273 ± 0.00058 in assay [2] (50 nM), 0.0243 ± 0.00058 in assay [2] (100 nM), 0.018 in assay [2] (500 nM) and 0.022 ± 0.001 in assay [2] (1000 nM).

Regarding S68 BREAST, the surviving fraction in assay [1] (0.5 nM) turned out to be 1.18 ± 0.21; in assay [1] (1 nM), 1.07 ± 0.24; in assay [1] (5 nM) it was 1.26 ± 0.17; in assay [1] (10 nM), 1.19 ± 0.15; in assay [1] (50 nM), 1 ± 0.29; in assay [1] (100 nM) it was 1.21 ± 0.15. The surviving fraction in assay [1] (500 nM) amounted to 0.95 ± 0.34; in assay [1] (1000 nM), 1.2 ± 0.11; in assay [2] (0.5 nM) it was 0.815 ± 0.052; in assay [2] (1 nM), 0.575 ± 0.13; in assay [2] (5 nM), 0.197 ± 0.045; in assay [2] (10 nM) it was 0.134 ± 0.026. For the same test system, the surviving fraction in assay [2] (50 nM) is 0.14 ± 0.0047; in assay [2] (100 nM) it was 0.144 ± 0.025; in assay [2] (500 nM) it was 0.114 ± 0.0076; in assay [2] (1000 nM), 0.122 ± 0.0061.

Turning to HELA CERVIX, the surviving fraction in assay [1] (0.5 nM) came to 1.09 ± 0.049; in assay [1] (1 nM), 1.11 ± 0.047; in assay [1] (5 nM), 1.05 ± 0.058; in assay [1] (10 nM), 1.05 ± 0.039; in assay [1] (50 nM) it was 1.09 ± 0.018; in assay [1] (100 nM), 1.16 ± 0.044. In addition, the surviving fraction is 1.14 ± 0.033 in assay [1] (500 nM); 1.13 ± 0.049 in assay [1] (1000 nM); 1.04 ± 0.037 in assay [2] (0.5 nM); 1.05 ± 0.1 in assay [2] (1 nM); 0.0503 ± 0.001 in assay [2] (5 nM); 0.0423 ± 0.0041 in assay [2] (10 nM). The surviving fraction in assay [2] (50 nM) is 0.0277 ± 0.0016; in assay [2] (100 nM) it was 0.0237 ± 0.0039; in assay [2] (500 nM) it was 0.017 ± 0.0015; in assay [2] (1000 nM), 0.0247 ± 0.00076.
